{
  "source": "paper PMC7718273",
  "about": "(Scientific Reports, 2020)",
  "key": {"PREP": {"biological_target": "T1, PREP (Homo sapiens, UniProt P48147)", "T1 construct": "purchased R&D Systems 4308-SE", "T1 sequence (P48147 whole entry)": "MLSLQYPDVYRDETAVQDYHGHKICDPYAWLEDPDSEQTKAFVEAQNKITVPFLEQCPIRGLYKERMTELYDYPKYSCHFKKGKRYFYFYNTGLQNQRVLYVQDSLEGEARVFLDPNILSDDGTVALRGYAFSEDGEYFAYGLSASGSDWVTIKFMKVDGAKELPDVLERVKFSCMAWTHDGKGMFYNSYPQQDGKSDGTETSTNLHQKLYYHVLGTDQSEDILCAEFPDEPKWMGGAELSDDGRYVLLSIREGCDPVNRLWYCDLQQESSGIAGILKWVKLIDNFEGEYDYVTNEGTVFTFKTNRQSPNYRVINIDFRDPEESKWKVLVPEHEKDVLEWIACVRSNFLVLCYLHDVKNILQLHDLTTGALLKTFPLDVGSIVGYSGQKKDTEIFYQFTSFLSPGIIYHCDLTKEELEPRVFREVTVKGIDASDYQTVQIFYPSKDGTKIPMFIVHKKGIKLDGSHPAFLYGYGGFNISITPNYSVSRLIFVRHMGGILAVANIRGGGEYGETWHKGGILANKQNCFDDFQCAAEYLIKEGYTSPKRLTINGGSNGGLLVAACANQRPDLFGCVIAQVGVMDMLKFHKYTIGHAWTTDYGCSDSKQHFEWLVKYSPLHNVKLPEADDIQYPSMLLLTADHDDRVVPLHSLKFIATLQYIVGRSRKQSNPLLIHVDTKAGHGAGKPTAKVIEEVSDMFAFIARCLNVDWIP", "assay": "PREP activity, fluorometric assay with AMC substrate", "type": "biochemical", "method": "Recombinant human PREP (hPREP) (catalog no. 4308-SE), hDPP2/7 (catalog no. 3438-SE), hDPP9 (catalog no. 5419-SE), hFAP (catalog no. 3715-SE), and hDPP4 (catalog no. 9168-SE) proteins were from R&D Systems (Minneapolis, MN). Human FGF21 (catalog no. CRF159C) was from Cell Science (Newburyport, MA).\nFAP enzyme activities were assayed in 20 mM Tris/HCl, 0.1 M NaCl, 1 mM EDTA (pH 8.0) in the presence of 40 μM Suc-Gly-Pro-Leu-Gly-Pro-AMC (#I-1350.0100, BACHEM, Bubendorf, Switzerland) and hFAP in a total volume of 100 µL. […] The inhibitor concentrations ranged from 100 μM to 0.03 nM, and its IC50 values were computed with commercially available curve-fitting programs such as the SigmaPlot. Other protease activities were determined in a similar manner."}, "recombinant human FAP": {"test_system": "T2, recombinant human FAP", "T2 construct": "purchased R&D Systems 3715-SE", "assay": "FAP-mediated cleavage of hFGF21 in cell-free system (SDS-PAGE/immunoblot)", "type": "biochemical", "settings": "hFGF21 200 nM, hFAP 50 nM, SDS-PAGE"}, "[1]": {"assay": "Microsomal stability, human", "type": "in vitro ADME", "settings": "liver microsomes, pH 7.4, 0.5 mg/mL, NADPH, read-out: Microsomal stability (% remaining at 60 min)", "method": "(§1) Aliquots were then transferred in duplicate to: (i) a final concentration plate that was immediately quenched with 23.6 ng/mL internal standard (IS, chlorpropamide) in acetonitrile (ACN) or (ii) tubes, which were centrifuged for 5 min at 4℃ (14,000 rpm). The samples were subjected to LC–MS/MS analysis on an AB Sciex 4000 Q Trap hybrid triple quadrupole linear ion-trap MS (AB Sciex, Framingham, MA) coupled to an Agilent 1200 HPLC (Agilent Tech. Santa Clara, CA) with a reverse-phase Kinetex XB-C18 column (2.1 × 100 mm, 2.6 µm; Phenomenex). Mobile phases were comprised of 0.1% formic acid (FA) in water (A) and 0.1 FA in ACN (B). Data analysis was performed using […] (Ver. 1.6.1)."}, "[2]": {"assay": "Microsomal stability, monkey", "type": "in vitro ADME", "settings": "liver microsomes, pH 7.4, monkey (Mk), 0.5 mg/mL, NADPH, read-out: Microsomal stability (% remaining at 60 min)", "method": "as §1"}, "Plasma stability, human": {"assay": "Plasma stability, human", "type": "in vitro ADME", "settings": "pH 7.4, read-out: Plasma stability (% remaining at 60 min)", "method": "as §1"}, "Plasma stability, mouse": {"assay": "Plasma stability, mouse", "type": "in vitro ADME", "settings": "pH 7.4, mouse (M), read-out: Plasma stability (% remaining at 60 min)", "method": "as §1"}, "[3]": {"assay": "Plasma protein binding, rat", "type": "in vitro ADME", "settings": "rat (R), read-out: Plasma protein binding (% bound) (converted)", "method": "Protein binding was conducted as described. Compound solutions prepared in DMSO were diluted in phosphate buffer (final concentration: 1 µg/mL), and added into human plasma (total volume: 1 mL). Aliquots were then transferred in duplicate to: (i) a final concentration plate that was immediately quenched with 23.6 ng/mL internal standard (IS, chlorpropamide) in ACN, (ii) a degradation control, which was placed in a water bath at 37℃ for 4 h, and (iii) ultracentrifuge tubes, which were centrifuged for 5 min at 4℃ (14,000 rpm). All reactions were stopped by the addition of ACN containing 23.6 ng/mL chlorpropamide. The samples were subjected to LC–MS/MS analysis."}, "Thermodynamic solubility": {"assay": "Thermodynamic solubility", "type": "physicochemical", "settings": "thermodynamic from solid"}, "[4]": {"assay": "Pharmacokinetic study in monkeys", "type": "in vivo", "settings": "male, cynomolgus, cynomolgus monkey, plasma, inhaled or intranasal; for AUC(0-t): read-out: AUC(0–6 h)", "method": "Six male cynomolgus monkeys (4.5–5.5 kg) were obtained from Sichuan Primed Shines Bio-tech Co., Ltd (Chengdu, Sichuan, China) and maintained at 18–26 °C, a relative humidity of 40%-70%, a minimum of 8 air changes/h, and a 12-h light/12-h dark cycle. […] Plasma sample preparations and analysis were the same as described in mice study."}, "serum FAP": {"biological_target": "serum FAP (Macaca fascicularis, UniProt A0A2K5VGH4)", "sequence (A0A2K5VGH4 entry or part of it)": "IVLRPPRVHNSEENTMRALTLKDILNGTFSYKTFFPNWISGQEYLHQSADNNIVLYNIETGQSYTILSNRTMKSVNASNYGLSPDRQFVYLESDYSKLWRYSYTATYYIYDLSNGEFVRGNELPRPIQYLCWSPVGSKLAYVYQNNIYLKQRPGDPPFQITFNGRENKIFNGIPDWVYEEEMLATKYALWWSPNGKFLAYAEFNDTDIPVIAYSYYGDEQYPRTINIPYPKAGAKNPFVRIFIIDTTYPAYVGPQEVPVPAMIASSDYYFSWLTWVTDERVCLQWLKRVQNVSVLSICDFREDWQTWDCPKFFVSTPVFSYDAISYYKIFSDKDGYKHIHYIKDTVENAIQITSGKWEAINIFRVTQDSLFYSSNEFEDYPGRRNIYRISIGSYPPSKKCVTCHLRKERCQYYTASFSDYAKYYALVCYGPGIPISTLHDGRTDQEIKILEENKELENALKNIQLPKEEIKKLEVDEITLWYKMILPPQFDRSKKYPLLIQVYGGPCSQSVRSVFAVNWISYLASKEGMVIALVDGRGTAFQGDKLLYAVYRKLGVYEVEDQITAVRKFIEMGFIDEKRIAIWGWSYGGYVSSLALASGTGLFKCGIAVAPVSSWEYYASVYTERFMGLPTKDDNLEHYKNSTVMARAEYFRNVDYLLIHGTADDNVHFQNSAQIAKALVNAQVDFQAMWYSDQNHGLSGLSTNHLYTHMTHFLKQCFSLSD", "assay": "IC50 on serum FAP, monkeys", "type": "biochemical", "settings": "read-out: Serum FAP IC50 (nM): Monkey"}, "CDAHFD NASH mouse model": {"test_system": "CDAHFD NASH mouse model", "assay": "In vivo study using CDAHFD mice (NASH model)", "parameters": "species or system C57BL/6J mice", "method": "(§2) C57BL/6J mice were fed normal chow diet (n = 5) or choline-deficient, L-amino acid-defined, high-fat diet (CDAHFD) for 4 weeks to induce NASH (n = 8–10/group). […] (a) Relative FAP activity was assessed by FRET-quench and serum FGF21 level at week 14. […] (c) Steatosis scores ranged from 0 to 3 (normal = 0, minimal = 1, moderate = 2, marked = 3) were determined. Hepatic steatosis and fibrosis (Picrosirius red stain) were analyzed in a blinded manner or by digital image analyzer. (d–e) Histological evaluations of liver tissue were performed in each group. Paraffin-embedded liver sections were stained with H&E (d) and Sirius red (e). Representative photographs of each group were presented. Images were obtained at 100x (Scale bar = 50 µm).\n(§3) Male C57BL/6J mice (5 weeks of age) were fed with a CDAHFD consisting of 60% kcal fat and 0.1% methionine. […] For the CDAHFD model, compound treatments were started at the beginning of week 4 on the diet and continued until week 14. […] Liver tissue was then collected. All other measurements were done similarly as described above. Staining was performed using H&E and Picrosirius red as described previously. Areas of positive Sirius red were quantified by computer-based morphometric analysis."}, "FAP": {"test_system": "T3, FAP", "T3 construct": "from tissue; host or cells: mouse serum/plasma (ob/ob and C57BL/6J mice)", "assay": "In vivo study using CDAHFD mice: FAP activity at week 14", "parameters": "species or system C57BL/6J mice", "settings": "10 and 30 mg/kg p.o. for 10 weeks, vs vehicle", "method": "as §2, §3"}, "in vivo": {"assay": "in vivo", "settings": "cynomolgus monkey, plasma, inhaled or intranasal, 50 mg/kg", "protocol": "Intact FGF21 levels in plasma were measured by ELISA.\nFAP activity and intact FGF21 concentrations were measured as described above."}, "[5]": {"settings": "10 and 30 mg/kg, week 14, vs vehicle"}},
  "note": "Read-outs that look alike come from different tables or passages of the source.",
  "data": [
    {"compound": "N#Cc1ccc(Cc2nc(C(=O)NCC(=O)N3CC(F)(F)C[C@H]3C#N)cs2)cc1", "note": "[BR103354, (S)-N-(2-(2-cyano-4,4-difluoropyrrolidin-1-yl)-2-oxoethyl)-2-(4-cyanobenzyl)thiazole-4-carboxamide]", "values": [
      {"measurement": "IC50", "setting": "PREP", "value": 0.387, "unit": "µM"},
      {"measurement": "concentration from which FAP-mediated hFGF21 cleavage was inhibited", "setting": "recombinant human FAP", "value": 0.4, "unit": "µM"},
      {"measurement": "remaining at 1 h, 1 µM", "setting": "[1]", "value": 95, "unit": "%"},
      {"measurement": "remaining at 1 h, 1 µM", "setting": "[2]", "value": 81, "unit": "%"},
      {"measurement": "remaining at 1 h, 1 µM", "setting": "Plasma stability, human", "value": "> 100", "unit": "%"},
      {"measurement": "remaining at 1 h, 1 µM", "setting": "Plasma stability, mouse", "value": 94, "unit": "%"},
      {"measurement": "fraction unbound at 1 µg/mL", "setting": "[3]", "value": 0.4},
      {"measurement": "solubility thermodynamic", "setting": "Thermodynamic solubility; aqueous buffer, pH 3.0", "value": 0.165, "unit": "mg/mL"},
      {"measurement": "solubility thermodynamic", "setting": "Thermodynamic solubility; aqueous buffer, pH 7.0", "value": 0.141, "unit": "mg/mL"},
      {"measurement": "solubility thermodynamic", "setting": "Thermodynamic solubility; simulated gastric fluid, pH 1.0", "value": 0.197, "unit": "mg/mL"},
      {"measurement": "Cmax", "setting": "[4]; monkey, 10 mg/kg intranasally", "value": 0.42, "unit": "µg/mL"},
      {"measurement": "Tmax", "setting": "[4]; monkey, 10 mg/kg intranasally", "value": 2.3, "unit": "h"},
      {"measurement": "AUC(0-t)", "setting": "[4]; monkey, 10 mg/kg intranasally", "value": 1.2, "unit": "µg·h/mL"},
      {"measurement": "half-life", "setting": "[4]; monkey, 10 mg/kg intranasally, read-out: T1/2 (converted)", "value": 1.3, "unit": "h"},
      {"measurement": "Cmax", "setting": "[4]; monkey, 30 mg/kg intranasally", "value": 2, "unit": "µg/mL"},
      {"measurement": "Tmax", "setting": "[4]; monkey, 30 mg/kg intranasally", "value": 2.3, "unit": "h"},
      {"measurement": "AUC(0-t)", "setting": "[4]; monkey, 30 mg/kg intranasally", "value": 6.4, "unit": "µg·h/mL"},
      {"measurement": "half-life", "setting": "[4]; monkey, 30 mg/kg intranasally, read-out: T1/2 (converted)", "value": 2.8, "unit": "h"},
      {"measurement": "half-life", "setting": "[4]; monkeys, 10/30 mg/kg, read-out: half-life (T1/2), range over doses", "value": "1.3 to 2.8", "unit": "h"},
      {"measurement": "Tmax", "setting": "[4]; monkeys, dose not given in the sentence (10/30 mg/kg)", "value": 2.3, "unit": "h"},
      {"measurement": "IC50", "setting": "serum FAP", "value": 27, "unit": "nM"},
      {"measurement": "liver fibrosis (Picrosirius red staining)", "setting": "CDAHFD NASH mouse model; 10 and 30 mg/kg", "value": "significant reduction"},
      {"measurement": "increase of serum FGF21 levels", "setting": "CDAHFD NASH mouse model; 10 and 30 mg/kg p.o. for 10 weeks", "value": "1.5–1.9 folds"},
      {"measurement": "Steatosis scores", "setting": "CDAHFD NASH mouse model; 10 and 30 mg/kg, score 0 to 3", "value": "significant reduction"},
      {"measurement": "TG", "setting": "CDAHFD NASH mouse model; [5]", "value": "reduced"},
      {"measurement": "blood ALT levels", "setting": "CDAHFD NASH mouse model; [5]", "value": "reduced"},
      {"measurement": "blood AST levels", "setting": "CDAHFD NASH mouse model; [5]", "value": "reduced"},
      {"measurement": "glucose levels", "setting": "CDAHFD NASH mouse model; [5]", "value": "reduced"},
      {"measurement": "total cholesterol", "setting": "CDAHFD NASH mouse model; [5]", "value": "reduced"},
      {"measurement": "FAP activity", "setting": "FAP", "value": "inhibited in a dose-dependent manner"},
      {"measurement": "Tmax", "setting": "in vivo", "value": 3, "unit": "h"}
    ]}
  ]
}
